Reference: patent US6552080B1, “Fungicidal compounds having a fluorovinyl-or fluoropropenyl-oxyphenyloxime moiety and process for the preparation thereof” (Korea Research Institute of Chemical Technology, priority 1999, dated 2003)
Where two headings read alike, the source gives them in different places.

Tests used:
[1] = tested on: Pyricularia oryzae Carvara KA301; format: in vivo; details: Rice Blast
[2] = tested on: Botrytis cinerae; test: Fungicidal activity against Cucumber Gray Mold Rot (CGM) disease; format: in vivo; details: Cucumber Gray Mold Rot; concentration 50 ppm
[3] = tested on: Phytophthora infestans; format: in vivo; details: Tomato Late Blight
[4] = tested on: Puccinia recondita; test: Fungicidal activity against Wheat Leaf Rust (WLR) disease; format: in vivo; details: Wheat Leaf Rust
[5] = tested on: Erysiphae graminis; test: Fungicidal activity against Barley Powdery Mildew (BPM) disease; format: in vivo; details: Barley Powdery Mildew
[6] = tested on: Rhizoctonia solani AG-1; test: Fungicidal activity against Rice Sheath Blight (RSB) disease; details: Rice Sheath Blight

| Structure (SMILES) | RCV (Fungicidal Activities, C.V.) ([1]; concentration 2 ppm) | RCV (Fungicidal Activities, C.V.) ([1]; concentration 50 ppm) | CGM (Fungicidal Activities, C.V.) [2] | TLB (Fungicidal Activities, C.V.) ([3]; concentration 2 ppm) | TLB (Fungicidal Activities, C.V.) ([3]; concentration 50 ppm) | WLR (Fungicidal Activities, C.V.) ([4]; concentration 2 ppm) | WLR (Fungicidal Activities, C.V.) ([4]; concentration 50 ppm) | BPM (Fungicidal Activities, C.V.) ([5]; concentration 2 ppm) | BPM (Fungicidal Activities, C.V.) ([5]; concentration 50 ppm) | RSB (Fungicidal Activities, C.V.) ([6]; concentration 2 ppm) | RSB (Fungicidal Activities, C.V.) ([6]; concentration 50 ppm) | RCV (Fungicidal Activities, C.V.) ([1]; concentration 10 ppm) | WLR (Fungicidal Activities, C.V.) ([4]; concentration 10 ppm) | BPM (Fungicidal Activities, C.V.) ([5]; concentration 10 ppm) |
| --- | --- | --- | --- | --- | --- | --- | --- | --- | --- | --- | --- | --- | --- | --- |
| CNC(=O)C(=NOC)c1ccccc1CON=C(C)c1cccc(OC(F)=Cc2cccc(C)c2)c1 [Compound 78] | 100% | 100% | 82% | 50% | 94% | 100% | 100% | 100% | 100% | 45% | 90% |  |  |  |
| CCc1ccc(C=C(F)Oc2cccc(C(C)=NOCc3ccccc3C(=NOC)C(=O)NC)c2)cc1 [Compound 79] | 99% | 100% | 80% | 43% | 82% | 98% | 100% | 100% | 100% | 35% | 65% |  |  |  |
| CNC(=O)C(=NOC)c1ccccc1CON=C(C)c1cccc(OC(F)=Cc2cccc(OC)c2)c1 [Compound 80] | 100% | 100% | 77% | 12% | 72% | 96% | 100% | 100% | 100% | 45% | 100% |  |  |  |
| CCOc1ccc(C=C(F)Oc2cccc(C(C)=NOCc3ccccc3C(=NOC)C(=O)NC)c2)cc1 [Compound 81] | 100% | 100% | 83% | 12% | 64% | 99% | 100% | 100% | 100% | 30% | 100% |  |  |  |
| CNC(=O)C(=NOC)c1ccccc1CON=C(C)c1cccc(OC(F)=Cc2ccc(F)cc2)c1 [Compound 82] | 100% | 96% | 82% | 85% | 84% | 100% | 100% | 100% | 100% | 55% | 85% |  |  |  |
| COC=C(C(=O)OC)c1ccccc1CON=C(c1cccc(OC(F)=Cc2ccc(C)cc2)c1)C(F)(F)F [Compound 85] |  | 93% | 7% |  | 0% |  | 96% |  | 99% |  | 40% | 16% | 93% | 92% |
| COC=C(C(=O)OC)c1ccccc1CON=C(c1cccc(OC(F)=Cc2ccc(OC)cc2)c1)C(F)(F)F [Compound 89] |  | 80% | 0% |  | 12% |  | 96% |  | 100% |  | 50% |  | 70% | 99% |
| COC=C(C(=O)OC)c1ccccc1CON=C(c1cccc(OC(F)=Cc2cccc(F)c2)c1)C(F)(F)F [Compound 90] |  | 76% | 9% |  | 27% |  | 86% |  | 99% |  | 35% |  |  | 97% |
| COC=C(C(=O)OC)c1ccccc1CON=C(c1cccc(OC(F)=Cc2ccc3c(c2)OCO3)c1)C(F)(F)F [Compound 94] | 99% | 100% | 54% |  | 68% | 93% | 100% | 100% | 100% |  | 60% | 100% | 96% | 100% |
| CON=C(C(=O)OC)c1ccccc1CON=C(c1cccc(OC(F)=Cc2ccccc2)c1)C(F)(F)F [Compound 102] | 71% | 99% | 23% |  | 0% | 94% | 99% | 97% | 100% |  | 50% | 86% | 96% | 100% |
| COC=C(C(=O)OC)c1ccccc1CON=Cc1cccc(OC(F)=C(c2cccc(C)c2)C(F)(F)F)c1 [Compound 104] | 25% | 96% | 0% |  | 0% | 66% | 97% | 80% | 100% |  | 45% | 75% | 93% | 99% |
| COC=C(C(=O)OC)c1ccccc1CON=Cc1cccc(OC(F)=C(c2ccc(C)cc2)C(F)(F)F)c1 [Compound 105] |  | 0% | 0% |  | 0% | 86% | 100% | 98% | 100% |  | 20% |  | 98% | 99% |
| COC=C(C(=O)OC)c1ccccc1CON=Cc1cccc(OC(F)=C(c2ccc(OC)cc2)C(F)(F)F)c1 [Compound 111] |  | 0% | 17% |  | 0% | 80% | 98% | 95% | 100% |  | 0% |  | 95% | 100% |
| COC=C(C(=O)OC)c1ccccc1CON=Cc1cccc(OC(F)=C(c2ccc(F)cc2)C(F)(F)F)c1 [Compound 113] |  | 0% | 0% |  | 21% | 86% | 100% | 86% | 100% |  | 20% |  | 98% | 96% |
| COC=C(C(=O)OC)c1ccccc1CON=Cc1cccc(OC(F)=C(c2cccc(Cl)c2)C(F)(F)F)c1 [Compound 116] |  | 0% | 0% |  | 14% | 53% | 96% | 33% | 100% |  | 15% |  | 96% | 96% |
| COC=C(C(=O)OC)c1ccccc1CON=Cc1cccc(OC(F)=C(c2ccc(Br)cc2)C(F)(F)F)c1 [Compound 118] |  | 33% | 36% |  | 0% | 91% | 100% | 88% | 100% |  | 30% |  | 98% | 96% |
| CON=C(C(=O)OC)c1ccccc1CON=Cc1cccc(OC(F)=C(c2ccccc2)C(F)(F)F)c1 [Compound 131] | 43% | 80% | 42% |  | 4% | 98% | 100% | 76% | 100% |  | 55% |  |  |  |
| CON=C(C(=O)OC)c1ccccc1CON=Cc1cccc(OC(F)=C(c2ccc(F)cc2)C(F)(F)F)c1 [Compound 135] | 43% | 86% | 71% |  | 0% | 94% | 100% | 93% | 100% | 20% | 61% |  |  |  |
